Data on one molecule can be found in patent US6361780B1, “Microporous drug delivery system” (Cardiac Pacemakers, Inc., priority 1998, dated 2002).

This data set is described as follows: In vitro elution testing of drug-loaded collars (light absorption of solution at 242 nm). In kind it is physicochemical. The following applies: dried collar loaded from aqueous solution, then immersed in water. The method, then: FIG. 3 is a graph of radiation absorption (at 242 nm) versus time to measure the elution of dexamethasone acetate.
* denotes the use of an approximation during the calculation of values. […] The soaked collars were then dried for three hours and the delivered for elution testing. Elution testing was done by in vitro testing of the light absorption of a solution into which the collars were placed. The absorption at 242 nm was measured (a wavelength at which dexamethasone acetate strongly absorbs) and the release of the drug noted by increasing levels of absorbance, as shown in FIG. 3. […] Pore size would be estimated by taking the largest linear dimensions within each of the open areas and using that linear value as the largest dimension for that pore.
The rate of release from the collars is intended to be highly tailored to the specific ultimate use intended for the catheter or lead. The leads which may be used include traditional leads such as cardiac leads, but may also include other leads such as leads to organs that produce enzymes and hormones (as in the electrically stimulated treatment for Parkinsonism to accelerate the natural production of L-dopa), in stimulating breathing (in the prevention of SIDS or control of sleep apnea), neurological leads, hearing related leads, tinitus suppression leads, and the like. […]

With `CC(=O)OCC(=O)[C@@]1(O)[C@H](C)C[C@H]2[C@@H]3CCC4=CC(=O)C=C[C@]4(C)[C@@]3(F)[C@@H](O)C[C@@]21C` [dextramethasone acetate, dexamethasone acetate], the “removal of drug from the pores on immersion” value was “removed from the pores over time”.
